Literature values, collected in patent US20230303712A1, “METHODS OF TREATING GLIOBLASTOMA” (Ramot at Tel-Aviv University Ltd., priority 2020, published 2023).

What was measured:
[1] = administered systemically; cited from earlier work
[2] = different animal models; cited from earlier work
[3] = biological target: T1, E-Selectin (Homo sapiens, UniProt P16581); conditions: in humans in vitro; cited from earlier work
T1 sequence (P16581 22-610): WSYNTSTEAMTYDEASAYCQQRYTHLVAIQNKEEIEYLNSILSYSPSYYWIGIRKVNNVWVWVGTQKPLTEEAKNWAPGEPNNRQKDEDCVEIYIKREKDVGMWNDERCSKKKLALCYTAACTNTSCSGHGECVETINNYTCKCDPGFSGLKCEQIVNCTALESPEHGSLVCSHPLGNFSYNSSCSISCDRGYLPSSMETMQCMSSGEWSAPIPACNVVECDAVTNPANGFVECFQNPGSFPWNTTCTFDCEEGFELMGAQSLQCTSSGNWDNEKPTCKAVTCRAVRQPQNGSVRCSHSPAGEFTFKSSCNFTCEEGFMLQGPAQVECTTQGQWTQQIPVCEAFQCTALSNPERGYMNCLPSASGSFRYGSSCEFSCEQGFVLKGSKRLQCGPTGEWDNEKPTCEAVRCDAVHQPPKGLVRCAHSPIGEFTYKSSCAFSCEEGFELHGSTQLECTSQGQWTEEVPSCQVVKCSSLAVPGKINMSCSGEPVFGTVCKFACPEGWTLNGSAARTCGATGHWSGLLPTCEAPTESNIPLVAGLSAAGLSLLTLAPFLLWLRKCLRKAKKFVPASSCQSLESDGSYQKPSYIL

[4] = biological target: T2, L-Selectin (Homo sapiens, UniProt P14151); conditions: in humans in vitro; cited from earlier work
T2 sequence (P14151 39-372): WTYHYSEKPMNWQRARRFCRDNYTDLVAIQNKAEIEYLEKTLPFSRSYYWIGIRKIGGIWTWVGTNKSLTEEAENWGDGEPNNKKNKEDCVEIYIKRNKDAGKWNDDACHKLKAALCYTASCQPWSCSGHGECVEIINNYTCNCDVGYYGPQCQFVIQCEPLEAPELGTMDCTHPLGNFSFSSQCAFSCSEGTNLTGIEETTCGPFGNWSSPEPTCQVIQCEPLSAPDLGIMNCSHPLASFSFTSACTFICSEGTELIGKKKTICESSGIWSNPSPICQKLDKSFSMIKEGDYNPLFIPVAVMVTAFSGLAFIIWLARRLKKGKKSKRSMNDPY

[5] = biological target: T3, P-Selectin (Homo sapiens, UniProt P16109); conditions: in humans in vitro; cited from earlier work
T3 sequence (P16109 42-830): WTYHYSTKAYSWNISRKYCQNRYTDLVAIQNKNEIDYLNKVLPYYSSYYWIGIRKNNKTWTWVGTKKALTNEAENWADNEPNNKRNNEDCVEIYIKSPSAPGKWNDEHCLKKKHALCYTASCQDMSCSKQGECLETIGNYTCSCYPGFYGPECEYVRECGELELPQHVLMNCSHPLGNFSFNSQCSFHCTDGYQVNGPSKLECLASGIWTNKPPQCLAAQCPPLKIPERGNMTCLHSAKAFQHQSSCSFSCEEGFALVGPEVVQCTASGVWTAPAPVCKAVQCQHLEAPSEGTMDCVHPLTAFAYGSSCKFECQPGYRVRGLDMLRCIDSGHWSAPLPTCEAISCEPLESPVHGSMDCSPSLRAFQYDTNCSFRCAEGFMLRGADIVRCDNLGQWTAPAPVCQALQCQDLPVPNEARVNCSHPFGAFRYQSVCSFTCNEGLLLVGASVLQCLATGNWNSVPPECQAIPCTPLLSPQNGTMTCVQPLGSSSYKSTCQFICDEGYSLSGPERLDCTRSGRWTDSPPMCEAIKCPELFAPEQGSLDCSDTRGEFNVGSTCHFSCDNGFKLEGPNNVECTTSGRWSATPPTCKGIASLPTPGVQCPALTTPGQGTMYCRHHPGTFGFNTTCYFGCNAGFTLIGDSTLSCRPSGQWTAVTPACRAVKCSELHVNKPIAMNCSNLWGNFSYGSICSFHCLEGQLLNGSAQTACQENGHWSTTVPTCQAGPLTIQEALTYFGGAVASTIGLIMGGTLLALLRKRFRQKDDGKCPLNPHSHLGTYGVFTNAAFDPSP

Molecule | tolerability in patients [1] | anti-inflammatory effects [2] | E-selectin-dependent adhesion [3] | L-selectin-dependent adhesion [4] | P-selectin-dependent adhesion [5]
inclacumab: monoclonal antibody directed towards P-selectin | well tolerated | – | – | – | –
O=C(O)Cc1cccc(-c2cc(CCCCCCc3ccc(OC4O[C@H](CO)C(O)[C@H](O)[C@@H]4O)c(-c4cccc(CC(=O)O)c4)c3)ccc2OC2O[C@H](CO)C(O)[C@H](O)[C@@H]2O)c1 (stereo partly drawn) [Bimosiamose (TBC1269)] | – | anti-inflammatory effects | inhibit | inhibit | inhibit
crizanlizumab: Humanized monoclonal anti-P-selectin antibody (antibody, chains of the INN, looked up, V domains shown) VH: QVQLVQSGAEVKKPGASVKVSCKVSGYTFTSYDINWVRQAPGKGLEWMGWIYPGDGSIKYNEKFKGRVTMTVDKSTDTAYMELSSLRSEDTAVYYCARRGEYGNYEGAMDYWGQGTLVTVSS VL: DIQMTQSPSSLSASVGDRVTITCKASQSVDYDGHSYMNWYQQKPGKAPKLLIYAASNLESGVPSRFSGSGSGTDFTLTISSLQPEDFATYYCQQSDENPLTFGGGTKVEIK | well tolerated | – | – | – | –
